Experimental data as given in patent publication US20250011307A1, “CRYSTALLINE FORMS OF BIARYL YAP/TAZ-TEAD PROTEIN-PROTEIN INTERACTION INHIBITORS” (Novartis AG, priority 2021, published 2025).
Structures can show the parent of a compound that is named as a salt.

Key:
Format in all cases: physicochemical
[1] = Hygroscopicity (loss on drying by TGA and XRPD, as is and after storage at 92% / 80% RH); details: Compound B forms
[2] = Solubility after equilibration at 25° C. for 24 h, with final pH and XRPD of solid residues; details: Compound B forms
[3] = Xenon light stress test of bulk (HPLC degradation products, color, XRPD); set-up: key to CL color: A: No change; B: Slight discoloration; C: Medium discoloration; D: Strong discoloration; details: Compound B forms, Xenon light (1200 kLuxh, 25° C.)
Protocol: (§1) X-ray powder diffraction (XRPD) patterns were obtained using a Bruker Advance D8 in reflection geometry. Powders were analyzed using a zero background Si flat sample holder. The radiation used was Cu Kα (A=1.5418 Å). Patterns were measured between 2° and 40° 2theta. • Sample amount: 5-10 mg • Sample holder: zero background Si flat sample holder
as §1, with “radiation” for “radiation used”, “(λ=1.5418” for “(A=1.5418”

[4] = Excipient compatibility stress test (HPLC degradation products, color); set-up: key to CL color: A: No change; B: Slight discoloration; C: Medium discoloration; D: Strong discoloration; details: Compound B forms
[5] = Solid state bulk stability stress test (HPLC degradation products, color, XRPD); set-up: key to CL color: A: No change; B: Slight discoloration; C: Medium discoloration; D: Strong discoloration; details: Compound B forms
[6] = After 1 day at 92% RH, TGA temperature per cell: free form @233° C., succinate @205° C., L-malate @200° C., L-lactate @200° C.
[7] = Hygroscopicity, As is, TGA temperature per cell: free form @233° C., succinate @205° C., L-malate @200° C., L-lactate @200° C.
[8] = Blank FaSSIF, target concentration 2 mg/mL
[9] = FaSSIF V2 pH 6.5, target concentration 2 mg/mL
[10] = FeSSIF V2 pH 5.8, target concentration 2 mg/mL
[11] = SGF pH 2.0, target concentration 2 mg/mL
[12] = Water, target concentration 2 mg/mL
[13] = pH 1.2, 100 mM HCl, target concentration 2 mg/mL
[14] = pH 3.0, 50 mM citrate buffer, target concentration 2 mg/mL
[15] = pH 4.7, 50 mM acetate buffer, target concentration 2 mg/mL
[16] = pH 6.8, 50 mM phosphate buffer with 50 mM Na taurocholate
[17] = pH 6.8, 50 mM phosphate buffer with 50 mM Na taurocholate, target concentration 2 mg/mL
[18] = pH 6.8, 50 mM phosphate buffer, target concentration 2 mg/mL
[19] = 2 weeks 50° C./75% RH, 1% in HGC powder
[20] = 2 weeks 50° C./75% RH, 1% in HPMC powder
[21] = 2 weeks 50° C./closed, 1% in HGC powder
[22] = 2 weeks 50° C./closed, 1% in HPMC powder

CNC[C@]1(c2ccccc2)Oc2cc(F)c(Cl)c(-c3c(C(N)=O)ccc(OC)c3F)c2[C@@H]1C [Compound B Free form, amorphous, 2-((2S,3S,4S)-5-Chloro-6-fluoro-3-methyl-2-((methylamino)methyl)-2-phenyl-2,3-dihydrobenzofuran-4-yl)-3-fluoro-4-methoxybenzamide]
Loss on drying by TGA [1, 6]: 2.14%@233 °C
Loss on drying by TGA [1, 7]: 1.30%@233 °C
final pH ([2]; Blank FaSSIF): [7.36]
Sol. (solubility) [2, 8]: 1.49 mg/mL
final pH ([2]; FaSSIF V2 pH 6.5): [7.19]
Sol. (solubility) [2, 9]: 1.15 mg/mL
final pH ([2]; FeSSIF V2 pH 5.8): [6.01]
Sol. (solubility) [2, 10]: >2 mg/mL
final pH ([2]; SGF pH 2.0): [2.22]
Sol. (solubility) [2, 11]: >2 mg/mL
final pH ([2]; Water): [8.78]
Sol. (solubility) [2, 12]: 0.07 mg/mL
final pH ([2]; pH 1.2, 100 mM HCl): [1.16]
Sol. (solubility) [2, 13]: >2 mg/mL
final pH ([2]; pH 3.0, 50 mM citrate buffer): [3.08]
Sol. (solubility) [2, 14]: >2 mg/mL
final pH ([2]; pH 4.7, 50 mM acetate buffer): [4.84]
Sol. (solubility) [2, 15]: >2 mg/mL
final pH ([2]; pH 6.8, 50 mM phosphate buffer): [6.90]
final pH [2, 16]: [6.72]
Sol. (solubility) [2, 17]: >2 mg/mL
Sol. (solubility) [2, 18]: >2 mg/mL
Bulk amber vial (XRPD) ([3]; amber vial): No change
CL color ([3]; amber vial): A
DP[%] degradation products, Bulk amber vial (HPLC) ([3]; amber vial): 0.19%
Bulk clear quartz vial (XRPD) ([3]; clear quartz vial): No change
CL color ([3]; clear quartz vial): C
DP[%] degradation products, Bulk clear quartz vial (HPLC) ([3]; clear quartz vial): 2.74%
CL color [4, 19]: A
DP[%] degradation products [4, 19]: 2.50%
CL color [4, 20]: A
DP[%] degradation products [4, 20]: 4.33%
CL color [4, 21]: A
DP[%] degradation products [4, 21]: 1.87%
CL color [4, 22]: A
DP[%] degradation products [4, 22]: 2.02%
Bulk (XRPD) ([5]; 2 weeks 50° C./75% RH): gel-like
CL color ([5]; 2 weeks 50° C./75% RH): A
DP[%] degradation products, Bulk (HPLC) ([5]; 2 weeks 50° C./75% RH): 4.84%
Bulk (XRPD) ([5]; 2 weeks 80° C./11% RH): gel-like
CL color ([5]; 2 weeks 80° C./11% RH): C
DP[%] degradation products, Bulk (HPLC) ([5]; 2 weeks 80° C./11% RH): 13.00%
Bulk (XRPD) ([5]; 2 weeks 80° C./75% RH): gel-like
CL color ([5]; 2 weeks 80° C./75% RH): C
DP[%] degradation products, Bulk (HPLC) ([5]; 2 weeks 80° C./75% RH): 14.88%

CNC[C@]1(c2ccccc2)Oc2cc(F)c(Cl)c(-c3c(C(N)=O)ccc(OC)c3F)c2[C@@H]1C [Compound B L-lactate salt, 2-((2S,3S,4S)-5-Chloro-6-fluoro-3-methyl-2-((methylamino)methyl)-2-phenyl-2,3-dihydrobenzofuran-4-yl)-3-fluoro-4-methoxybenzamide]
XRPD ([1]; After 1 day at 80% RH): No change
Loss on drying by TGA ([1]; After 1 day at 80% RH, @200° C.): 1.08%@200 °C
XRPD ([1]; After 1 day at 92% RH): No change
Loss on drying by TGA [1, 6]: 1.18%@200 °C
Loss on drying by TGA [1, 7]: 0.92%@200 °C
final pH ([2]; Blank FaSSIF): [6.53]
final pH ([2]; FaSSIF V2 pH 6.5): [6.48]
final pH ([2]; FeSSIF V2 pH 5.8): [5.79]
final pH ([2]; SGF pH 2.0): [2.24]
final pH ([2]; Water): [7.03]
final pH ([2]; pH 1.2, 100 mM HCl): [1.12]
final pH ([2]; pH 3.0, 50 mM citrate buffer): [3.06]
final pH ([2]; pH 4.7, 50 mM acetate buffer): [4.70]
final pH ([2]; pH 6.8, 50 mM phosphate buffer): [6.79]
final pH [2, 16]: [6.58]
Bulk amber vial (XRPD) ([3]; amber vial): No change
CL color ([3]; amber vial): A
DP[%] degradation products, Bulk amber vial (HPLC) ([3]; amber vial): 0.17%
Bulk clear quartz vial (XRPD) ([3]; clear quartz vial): No change
CL color ([3]; clear quartz vial): B
DP[%] degradation products, Bulk clear quartz vial (HPLC) ([3]; clear quartz vial): 0.38%
CL color [4, 19]: A
DP[%] degradation products [4, 19]: 0.44%
CL color [4, 20]: A
DP[%] degradation products [4, 20]: 0.42%
CL color [4, 21]: A
DP[%] degradation products [4, 21]: 0.22%
CL color [4, 22]: A
DP[%] degradation products [4, 22]: 0.33%
Bulk (XRPD) ([5]; 2 weeks 50° C./75% RH): No change
CL color ([5]; 2 weeks 50° C./75% RH): A
DP[%] degradation products, Bulk (HPLC) ([5]; 2 weeks 50° C./75% RH): 0.33%
Bulk (XRPD) ([5]; 2 weeks 80° C./11% RH): No change
CL color ([5]; 2 weeks 80° C./11% RH): A
DP[%] degradation products, Bulk (HPLC) ([5]; 2 weeks 80° C./11% RH): 0.31%
Bulk (XRPD) ([5]; 2 weeks 80° C./75% RH): No change
CL color ([5]; 2 weeks 80° C./75% RH): A
DP[%] degradation products, Bulk (HPLC) ([5]; 2 weeks 80° C./75% RH): 2.11%

CNC[C@]1(c2ccccc2)Oc2cc(F)c(Cl)c(-c3c(C(N)=O)ccc(OC)c3F)c2[C@@H]1C [Compound B L-malate salt, 2-((2S,3S,4S)-5-Chloro-6-fluoro-3-methyl-2-((methylamino)methyl)-2-phenyl-2,3-dihydrobenzofuran-4-yl)-3-fluoro-4-methoxybenzamide]
Loss on drying by TGA [1, 6]: 0.83%@200 °C
Loss on drying by TGA [1, 7]: 0.81%@200 °C
final pH ([2]; Blank FaSSIF): [6.04]
final pH ([2]; FaSSIF V2 pH 6.5): [5.95]
final pH ([2]; FeSSIF V2 pH 5.8): [5.74]
final pH ([2]; SGF pH 2.0): [2.17]
final pH ([2]; Water): [4.34]
final pH ([2]; pH 3.0, 50 mM citrate buffer): [3.04]
final pH ([2]; pH 4.7, 50 mM acetate buffer): [4.62]
final pH ([2]; pH 6.8, 50 mM phosphate buffer): [6.59]
DP[%] degradation products, Bulk amber vial (HPLC) ([3]; amber vial): 0.16%
DP[%] degradation products, Bulk clear quartz vial (HPLC) ([3]; clear quartz vial): 1.53%
DP[%] degradation products [4, 19]: 1.32%
DP[%] degradation products [4, 20]: 2.65%
DP[%] degradation products [4, 21]: 0.24%
DP[%] degradation products [4, 22]: 0.36%
DP[%] degradation products, Bulk (HPLC) ([5]; 2 weeks 80° C./11% RH): 0.46%
DP[%] degradation products, Bulk (HPLC) ([5]; 2 weeks 80° C./75% RH): 2.84%

CNC[C@]1(c2ccccc2)Oc2cc(F)c(Cl)c(-c3c(C(N)=O)ccc(OC)c3F)c2[C@@H]1C [Compound B Succinate salt, 2-((2S,3S,4S)-5-Chloro-6-fluoro-3-methyl-2-((methylamino)methyl)-2-phenyl-2,3-dihydrobenzofuran-4-yl)-3-fluoro-4-methoxybenzamide]
Loss on drying by TGA [1, 6]: 0.67%@205 °C
Loss on drying by TGA [1, 7]: 0.56%@205 °C
final pH ([2]; Blank FaSSIF): [6.06]
Sol. (solubility) [2, 8]: >2 mg/mL
final pH ([2]; FaSSIF V2 pH 6.5): [6.06]
Sol. (solubility) [2, 9]: >2 mg/mL
final pH ([2]; FeSSIF V2 pH 5.8): [5.72]
Sol. (solubility) [2, 10]: >2 mg/mL
final pH ([2]; SGF pH 2.0): [2.20]
Sol. (solubility) [2, 11]: >2 mg/mL
final pH ([2]; Water): [4.97]
Sol. (solubility) [2, 12]: >2 mg/mL
final pH ([2]; pH 1.2, 100 mM HCl): [1.17]
Sol. (solubility) [2, 13]: >2 mg/mL
final pH ([2]; pH 3.0, 50 mM citrate buffer): [3.09]
Sol. (solubility) [2, 14]: >2 mg/mL
final pH ([2]; pH 4.7, 50 mM acetate buffer): [4.70]
Sol. (solubility) [2, 15]: >2 mg/mL
final pH ([2]; pH 6.8, 50 mM phosphate buffer): [6.64]
final pH [2, 16]: [6.43]
Sol. (solubility) [2, 17]: >2 mg/mL
Sol. (solubility) [2, 18]: >2 mg/mL
Bulk amber vial (XRPD) ([3]; amber vial): No change
CL color ([3]; amber vial): A
DP[%] degradation products, Bulk amber vial (HPLC) ([3]; amber vial): 0.13%
Bulk clear quartz vial (XRPD) ([3]; clear quartz vial): No change
CL color ([3]; clear quartz vial): B
DP[%] degradation products, Bulk clear quartz vial (HPLC) ([3]; clear quartz vial): 2.38%
CL color [4, 19]: A
DP[%] degradation products [4, 19]: 0.25%
CL color [4, 20]: A
DP[%] degradation products [4, 20]: 0.99%
CL color [4, 21]: A
DP[%] degradation products [4, 21]: 0.15%
CL color [4, 22]: A
DP[%] degradation products [4, 22]: 0.17%
Bulk (XRPD) ([5]; 2 weeks 50° C./75% RH): No change
CL color ([5]; 2 weeks 50° C./75% RH): A
DP[%] degradation products, Bulk (HPLC) ([5]; 2 weeks 50° C./75% RH): 0.09%
Bulk (XRPD) ([5]; 2 weeks 80° C./11% RH): No change
CL color ([5]; 2 weeks 80° C./11% RH): A
DP[%] degradation products, Bulk (HPLC) ([5]; 2 weeks 80° C./11% RH): 0.08%
Bulk (XRPD) ([5]; 2 weeks 80° C./75% RH): No change
CL color ([5]; 2 weeks 80° C./75% RH): A
DP[%] degradation products, Bulk (HPLC) ([5]; 2 weeks 80° C./75% RH): 0.17%
